For one data set, the system named is Folsomia candida. The following applies: chronic/long-term; reproduction.
For the next data set, the system named is Bibionidae. The following applies: chronic/long-term; other.
The next data set relates to Aphidius rhopalosiphi. Kind of data set: LR50; higher = less toxic. The settings on record: not reported; mortality.
In another data set the test system is Lepomis macrochirus. The following applies: acute; duration: 96 hours; mortality.
Another data set relates to Canidae. The following applies: oral, Dog Other, neurology.
For a further data set, the system named is Oryctolagus sp. The settings on record: developmental; development.
The next data set relates to Oncorhynchus mykiss. The following applies: chronic/long-term; duration: 91 days; development.
The test system of another data set is Apis mellifera. The following applies: acute, mortality.
For the next data set, the system named is Rattus norvegicus. The settings on record: acute; M; mortality.
Another data set relates to Daphnia magna. The following applies: chronic/long-term; growth.
Another data set concerns Hypoaspis aculeifer. The settings on record: chronic/long-term; duration: 14 days; mortality.

Values after ≈ are worked out from the molar mass of the structure shown.

What is called NOAEL is the highest dose or exposure tested at which no adverse effect was seen.

Consider `CCOP(=O)(NC(C)C)Oc1ccc(S(C)(=O)=O)c(C)c1` (stereo not given) [Fenamiphos sulfone], for which, in the data set with Folsomia candida, the NOEC was determined as 3.75 mg/kg.
On to `CCOP(=O)(NC(C)C)Oc1ccc(S(C)=O)c(C)c1` (stereo not given) [Fenamiphos sulfoxide], for which the NOEC was determined as 2 mg/kg in the data set with Folsomia candida and 0.058 mg/L in the data set with Bibionidae.
`CCOP(=O)(NC(C)C)Oc1ccc(SC)c(C)c1` (stereo not given) [Fenamiphos] displayed an LR50 in the data set on Aphidius rhopalosiphi of 0.175 g/ha. In addition, the LC50 with Lepomis macrochirus is 9.3 ng/mL (≈ 0.0307 µM); with Tagia sp. (acute, duration: 14 days, mortality), 888 mg/kg. The NOAEL came to 0.25 mg/kg-day in the data set on Canidae (acute); 0.083 mg/kg-day with Canidae (chronic, duration: 1 years); 0.3 mg/kg-day with Oryctolagus sp.. The compound also had an LEL in the data set on Colinus virginianus (acute, oral, M) of 0.8 mg/kg-day. Besides, the NOEC in the data set on Colinus virginianus (reproduction developmental, M/F) is 0.2 mg/kg-day; with Oncorhynchus mykiss, 0.0038 mg/L; with Folsomia candida, 0.313 mg/kg; in the data set with Daphnia magna, 0.00012 mg/L; with Tagia sp. (chronic/long-term, duration: 8 weeks, reproduction), less than 6000 g/ha; in the data set with Hypoaspis aculeifer, 1.33 mg/kg. For the same compound, the LEC with Colinus virginianus (short-term, oral, diet) came out at 6 mg/kg-day. For the same compound, the LD50 in the data set on Apis mellifera (duration: 48 hours, dermal) came to 0.28 µg/piece; with Apis mellifera (oral, unspecified), 0.45 µg/piece; in the data set on Rattus norvegicus, 6 mg/kg.

The values above are taken from EPA's ToxValDB 9.5 (doi:10.2903/j.efsa.2006.62r).
